The text below walks through data of patent publication US10849847B2, “Compositions and methods for treating rosacea and acne” (Foamix Pharmaceuticals Ltd., priority 2016, dated 2020).

For data set [1], the system named is papulopustular rosacea. The following applies: cited from earlier work; for IGA = Clear/Almost Clear / Inflammatory Lesions: Mean Absolute Reduction / ≥2 IGA Grade Reduction: Week 16.
The conditions of data set [2]: in vitro; cited from earlier work.
The nature of data set [3]: Doxycycline Monohydrate Compatibility Test. In kind it is physicochemical. The settings on record: for Effect of anti-oxidant on oxidation of Doxycycline Monohydrate: waterless medium of propylene glycol and PEG 200.
Data set [4] in a line: Doxycycline Hyclate Compatibility Test. Type of data set: physicochemical. The following applies: for Effect of anti-oxidant on oxidation of Doxycycline Hyclate: waterless medium of propylene glycol and PEG 200. The procedure:
(§1) A similar compatibility study was conducted for Doxycycline Hyclate and Doxycycline Monohydrate.
(§2) Different compositions of hydrophilic and hydrophobic solvents containing Doxycycline Hyclate (Set I and Set II) and Doxycycline Monohydrate (Set III) were prepared by weighing the antibiotic in a glass vial and shaking overnight with each solvent investigated.
Group II included Doxycycline Hyclate mixed with various vehicles with addition of antioxidants like alpha tocopherol, butylated hydroxytoluene (BHT), and ascorbic acid.

The conditions of data set [5]: for Effect of anti-oxidant on oxidation of Minocycline HCl: waterless medium of propylene glycol and PEG 200. The procedure: The ratio between MCH and the tested excipient is detailed below. Visual inspection was the major criterion for indication of compatibility. The color of intact MCH suspension is pale yellow; and any change of color (e.g., to dark orange, red, green, brown and black) indicates oxidation or degradation.
Other than hydrogenated castor oil, beeswax, paraffin and hard fat, the aforesaid items listed are oily emollients.
Additives were tested for compatibility with MCH. […] In parallel, antioxidants were added to the MCH suspensions comprising water.

The conditions of data set [6]: cited from earlier work.
Data set [7] is described as follows: Doxycycline Monohydrate Compatibility Test. Type of data set: physicochemical. How it is done:
as §1, §2
A similar compatibility test was performed on another form of Doxycycline—Doxycycline Monohydrate.

[8] abbreviates: mixtures stored at 25° C., 40° C. and 50° C. for two weeks.
Where [9] appears, read: tested after the storage for up to 3 weeks.

Where two headings read alike, the source gives them in different places.

For `C[C@H]1c2cccc(O)c2C(=O)C2=C(O)[C@]3(O)C(=O)C(C(N)=O)=C(O)[C@@H](N(C)C)[C@@H]3[C@@H](O)[C@@H]21` [Oracea], in data set [1] (Study 1, Active), the “Baseline IGA Moderate” value was 52.8%, the “Baseline IGA Severe” value is 40.9%, the “Inflammatory Lesions: Baseline No. of lesions” value is given as 19.5 and the “IGA = Clear/Almost Clear” value is recorded as 30.7%. In data set [1] (Study 1, Active), the “Inflammatory Lesions: Mean Absolute Reduction” value was −11.8 and the “≥2 IGA Grade Reduction” value is recorded as 45.7%. For the same compound, in data set [1] (Study 2, Active), the “Baseline IGA Moderate” value is recorded as 54.2%, the “Baseline IGA Severe” value is 33.8%, the “Inflammatory Lesions: Baseline No. of lesions” value is recorded as 20.5 and the “IGA = Clear/Almost Clear” value is listed as 14.8%. In data set [1] (Study 2, Active), the “Inflammatory Lesions: Mean Absolute Reduction” value is reported as −9.5 and the “≥2 IGA Grade Reduction” value is given as 22.5%.
Consider `CN(C)c1ccc(O)c2c1C[C@H]1C[C@H]3[C@H](N(C)C)C(O)=C(C(N)=O)C(=O)[C@@]3(O)C(O)=C1C2=O` [minocycline], for which, in data set [2], the “Skin delivery of minocycline on topical administration” value is on record as “appreciable amounts of the drug to its target site of action (the skin)”.
Regarding `Cc1c(C)c2c(c(C)c1O)CC[C@@](C)(CCC[C@H](C)CCC[C@H](C)CCCC(C)C)O2` [alpha-tocopherol], in data set [3], the “Effect of anti-oxidant on oxidation of Doxycycline Monohydrate” value was “did not prevent the oxidation”. In addition, in data set [4], the “Effect of anti-oxidant on oxidation of Doxycycline Hyclate” value was “did not prevent the oxidation”. In data set [5], the “Effect of antioxidant on MCH degradation” value is reported as “did not prevent MCH degradation” and the “Effect of anti-oxidant on oxidation of Minocycline HCl” value is recorded as “did not prevent the oxidation”.
As to Doxycycline hyclate, in data set [6], the Lipid solubility result is recorded as “high degree of lipid solubility”. Besides, the Solubility entry was “soluble” in data set [6] (in solutions of alkali hydroxides and carbonates); “soluble” in data set [6] (in water).
Consider `O=C1O[C@H]([C@@H](O)CO)C(O)=C1O` [ascorbic acid], for which the “Effect of anti-oxidant on oxidation of Doxycycline Monohydrate” value in data set [3] is “did not prevent the oxidation”. Moreover, the “Effect of anti-oxidant on oxidation of Doxycycline Hyclate” value in data set [4] is given as “did not prevent the oxidation”. The “Effect of anti-oxidant on oxidation of Minocycline HCl” value in data set [5] is recorded as “did not prevent the oxidation”.
In the case of `CCO` [Ethanol], the “Compatibility Results” value in data set [3] (Mixtures of 1.04% w/w of Doxycycline Monohydrate stored at 25° C., 40° C., and 50° C. for two weeks) is given as “Non compatible”. Also, in data set [3] (Mixtures of 1.04% w/w of Doxycycline Monohydrate, 25° C., two weeks), the “Visual inspection after the storage at 25° C.” value is listed as “Brown”. Also, the “Visual inspection after the storage at 40° C.” value in data set [3] (Mixtures of 1.04% w/w of Doxycycline Monohydrate, 40° C., two weeks) was “Brown”. Besides, the “Visual inspection after the storage at 50° C.” value in data set [3] (Mixtures of 1.04% w/w of Doxycycline Monohydrate, 50° C., two weeks) is listed as “Black”. The “Visual inspection at T-0” value in data set [3] (Mixtures of 1.04% w/w of Doxycycline Monohydrate, T-0) is “bright yellow”. The “Compatibility with Doxycycline Monohydrate” value in data set [7] (setting [8]) was “oxidized”; in data set [7] (setting [9]) it was “No”. For the same compound, the “Compatibility with Doxycycline Hyclate” value was “stable” in data set [4] (setting [8]) and “Yes” in data set [4] (setting [9]). For the same compound, the “Compatibility with MCH” value in data set [5] (hydrophilic solvents, MCH:excipient 1:250, 25° C. and 40° C., maximum sixty days) was “incompatible”. Also, the “Compatibility with Minocycline HCl (observations)” value in data set [5] (on dissolution / storage) is given as “changed their color from yellow to orange”. Besides, the “Compatibility with Minocycline HCl” value in data set [5] (setting [9]) was “No”.
